Experiment in all cases: DTP human tumour cell line panel, 48 h
Assay [1] concerns DU-145 prostate.
The test system of assay [2] is HT29 colon.
The test system of assay [3] is MCF7 breast.
For assay [4], the system named is NCI-H460 lung.
Assay [5] concerns RXF 393 renal.
Assay [6] relates to SF-539 CNS.
Assay [7] relates to SK-OV-3 ovarian.
For assay [8], the system named is SN12C renal.
Assay [9] concerns U251 CNS.
In assay [10] the test system is UACC-257 melanoma.

Structures are written as SMILES.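 48-hour exposure; five concentrations; linearly interpolated endpoints. Abbreviation: GI50, concentration required for 50% inhibition of growth. TGI is the concentration that stops growth completely.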

Usually GI50 stands for the concentration giving 50% growth inhibition. A word on the TGI: it is the concentration giving total growth inhibition. The low end stands for more potent growth arrest, the high end for less potent growth arrest. Consider `C=C1C(=O)O[C@H]2[C@H]1CC/C(COC(=O)c1cc3ccccc3o1)=C\CC[C@@]1(C)O[C@@H]21`, for which the GI50 was 1.18 µM in [1]; 0.829 µM in assay [2]; 0.395 µM in [3]; 2 µM in assay [4]; 1.43 µM in assay [5]; 1.45 µM in [6]. In addition, the GI50 in assay [7] was 16.7 µM; in assay [8], 1.78 µM; in assay [9] it was 1.63 µM; in assay [10], 1.52 µM. The total growth inhibition concentration (TGI) in assay [1] was 2.45 µM; in assay [2], 2.21 µM; in assay [3], 2.18 µM; in [4] it was 4.51 µM; in assay [5], 2.87 µM; in [6], 2.84 µM. In addition, the TGI was found to be 32.7 µM in assay [7], 4.12 µM in assay [8], 3.16 µM in [9] and 3.04 µM in [10].
In the case of `C=C(C)[C@@H]1CC[C@]2(C(=O)O)CC[C@]3(C)[C@H](CC[C@@H]4[C@@]5(C)CCC(NC(=O)c6cccc(OC(C)=O)c6OC(C)=O)C(C)(C)[C@@H]5CC[C@]43C)[C@@H]12` (stereo not given in full), the GI50 in [1] is 0.882 µM; in assay [2], 0.806 µM; in assay [3], 0.586 µM; in [4] it was 0.38 µM; in assay [5] it was 1 µM; in assay [6], 0.576 µM. Further, the GI50 is 1.89 µM in assay [7], 0.94 µM in [8], 0.52 µM in [9] and 0.209 µM in assay [10]. Also, the TGI in assay [1] is over 100 µM; in [2] it was 3.14 µM; in assay [3], 6.42 µM; in [4], 1.42 µM; in assay [5], 3.12 µM; in assay [6], 2.5 µM. In addition, the TGI is over 20.4 µM in [7], over 100 µM in assay [8], 14.5 µM in [9] and 0.78 µM in [10].
Regarding `O=C(O)CCCSc1ccccc1`, the TGI in assay [1], in assay [2], in assay [3], in assay [4], in [5] and in assay [6] was over 100 µM throughout. The total growth inhibition concentration (TGI) in assay [7], in assay [8], in assay [9] and in [10] was over 100 µM throughout.
Consider `CC(=O)N1C/C(=C/c2ccc(Cl)cc2)C(=O)/C(=C/c2ccc(Cl)cc2)C1`, for which the GI50 in assay [1] is 1.13 µM; in assay [2], 0.254 µM; in assay [3], 0.292 µM; in assay [4], 1.32 µM; in [5] it was 0.546 µM; in assay [6], 0.785 µM. The GI50 was 1.61 µM in assay [7], 0.72 µM in assay [8], 0.337 µM in [9] and 1.52 µM in [10]. For the same compound, the TGI in assay [1] worked out at 2.62 µM; in [2], 0.619 µM; in assay [3], 1.13 µM; in [4], 4.22 µM; in [5], 1.61 µM; in assay [6], 2.03 µM. The TGI in assay [7] came out at 3.39 µM; in [8], 2.24 µM; in assay [9], 1.18 µM; in [10] it was 2.97 µM.
Take `COc1cc(-c2ccc(-c3ccc(C(=N)N)nc3)s2)cc(OC)c1OC`: the GI50 in assay [1] is 3.45 µM; in assay [2], 1.37 µM; in assay [3], 1.3 µM; in assay [4], 2.1 µM; in assay [5], 2.19 µM; in [6], 1.61 µM. Further, the GI50 in assay [7] is 13.1 µM; in [8], 2.05 µM; in assay [9], 1.74 µM; in assay [10], 2.15 µM. Moreover, the TGI in [1] was 12.1 µM; in [2], 5.68 µM; in [3], 3.24 µM; in assay [4] it was 4.39 µM; in assay [5], 4.83 µM; in assay [6], 3.01 µM. The TGI in assay [7] turned out to be 26 µM; in assay [8], 4.71 µM; in assay [9], 3.53 µM; in assay [10] it was 4.07 µM.
Turning to `C=C1C(C2(C)C(OC(C)=O)CC(=O)OC(C)(COC(C)=O)C2CC(=O)OC)C(OC=O)C(OC(=O)C(O)C(C)CC)C2(C)C(c3ccoc3)CC(=O)C12O` (stereo not given), the TGI in [1] is over 100 µM; in [2] it was over 100 µM; in assay [3], over 100 µM; in assay [4], over 21.8 µM; in assay [5] it was 6.48 µM; in assay [6], over 31.6 µM. Besides, the concentration for total growth inhibition (TGI) in assay [7], in assay [8], in [9] and in [10] was over 100 µM throughout.
`CNC(=O)c1ccc(N2C(=S)N(c3ccc(C#N)c(C(F)(F)F)c3)C(=O)C2(C)C)cc1F`: the GI50 was 53.9 µM in assay [1]; 43.3 µM in [2]; 33.9 µM in assay [3]; 28.2 µM in assay [4]; 35.8 µM in assay [5]; over 48.6 µM in assay [6]. The GI50 in assay [7] was over 51 µM; in [8], 38.6 µM; in [9] it was 43 µM; in [10] it was 35.1 µM. Further, the TGI in assay [1] is over 100 µM; in [2], over 100 µM; in [3] it was over 82.3 µM; in assay [4] it was over 74.3 µM; in [5], over 66 µM; in assay [6], over 87.3 µM. Moreover, the concentration for total growth inhibition (TGI) in [7] is over 93.1 µM; in assay [8], over 100 µM; in [9], over 79.7 µM; in [10], over 80.7 µM.
For the compound `CNC(=S)NC(=O)c1c(Cl)n(C(=O)OC(C)(C)C)c2ccccc12`, the GI50 was 94.2 µM in [1]; 56.7 µM in assay [2]; 28.3 µM in [3]; 48.6 µM in [4]; 48.5 µM in [5]; 35 µM in assay [6]. Besides, the GI50 in [7] is over 100 µM; in assay [8] it was 72.8 µM; in assay [9], 53.6 µM; in [10] it was 94.5 µM. Also, the concentration for total growth inhibition (TGI) in assay [1], in assay [2], in [3], in assay [4], in assay [5] and in assay [6] was over 100 µM in each case. Further, the concentration for total growth inhibition (TGI) in assay [7], in assay [8], in assay [9] and in assay [10] was over 100 µM in each case.

The values above are taken from PubChem BioAssay (NCI).
